In patent US20040033263A1, “Reduced formate poly(alkylene oxides) with secondary amines for reducing impurity formation” (priority 2002, published 2004):

How the values were obtained:
[1] = cited from earlier work
[2] = Stability of reboxetine methanesulfonate in the presence of traditional poly(alkylene oxide) polymers; type: physicochemical
From the text: Substantial levels of various impurities are formed, which increase in concentration over time. The predominant impurity that is formed is the n-formyl species of reboxetine methanesulfonate, known as n-formyl reboxetine.
Poly(alkylene oxide) polymer consists of long chains of the polymer. Irradiation and oxidation cause these chains to be cleaved, leaving inorganic and organic formates at the ends of the chains. As more cleaving occurs, there are higher levels of formates present.

| Structure (SMILES) | Pka [1] | stability in the presence of traditional poly(alkylene oxide) polymer subjected to irradiation processes or oxidation [2] | stability in the presence of traditional polyethylene oxides [2] |
| --- | --- | --- | --- |
| C/C(=C/C(=O)O)C(=O)O [citraconic acid] | 2.48 | – | – |
| F [hydrofluoric acid] | 3.14 | – | – |
| CCOc1ccccc1OC(c1ccccc1)C1CNCCO1.CS(=O)(=O)O (centres unmarked) [reboxetine methanesulfonate] | – | substantially less stable | unstable |
| O=S(O)(O)=S [thiosurfuric acid] | 2.00 | – | – |
